Patent publication US7750016B2, “Hydroxyalkyl substituted pyrido-7-pyrimidin-7-ones” (Roche Palo Alto LLC, priority 2003, dated 2010)
Where a name gives a salt, the structure may show the parent alone.

Experiments:
[1] = tested on: LPS-induced IL-1β production in undiluted human whole blood; experiment: human whole blood (HWB) in vitro assay, IL-1β ELISA; type: cell-based; settings: 0.5 μg/mL LPS, 18 hours, 30 min pre-incubation
Protocol: LPS (lipopolysaccharide) treatment of human whole blood induces IL-1β (Interleukin-1β) production that can be measured by an IL-1β specific ELISA. Human whole blood was pre-incubated with the indicated concentrations of a compound of the present invention in 0.5% DMSO (final concentration) for 30 min at 37° C. Samples were stimulated with 0.5 μg/mL of lipopolysaccharide (LPS, from Sigma) (final concentration) for 18 hours to induce the synthesis and secretion of IL-1β which was measured using an IL-1β ELISA.
A stock solution of 6 mM in DMSO (from Sigma) was prepared by dissolving the compound in DMSO in 449 μL of DMSO. From the 6 mM stock solution, six subsequent half-log serial dilutions in DMSO were performed to give the following concentrations: 1.9 mM, 600, 190, 60, 19, and 6 μM. […] 216 μL DMSO was placed in each of tubes 2-7.
Reconstitution of LPS: in the 10 mg. vial of LPS, 10 mL 1× Phosphate-Buffered Saline (i.e., 1×PBS, from Gibco-BRL) was added, mixed well and transferred to a 50 mL tube. Another 10 mL was added to the LPS vial, followed by rinsing, and this rinse was added to the 50 mL tube and mixed will. The solution was filtered and sterilized, and aliquotted in desired amounts (100 μL aliquot was sufficient for 4 plates). This yielded a 0.5 mg/mL stock which was diluted 1/100 for use in protocol. Just prior to use, the LPS stock was diluted 1/100 (100 μL in 10 mL of RPMI) […]

SMILES: C[C@@H](O)Cn1c(=O)c(Oc2ccc(F)cc2F)cc2cnc(NC(C)(C)CO)nc21 (as salt: hydrochloride) [Compound 31, 6-(2,4-Difluoro-phenoxy)-2-(2-hydroxy-1,1-dimethyl-ethylamino)-8-((R)-2-hydroxy-propyl)-8H-pyrido[2,3-d]pyrimidin-7-one]
- melting point: 182 to 183.9 °C

SMILES: C[C@H](O)Cn1c(=O)c(Oc2ccc(F)cc2F)cc2cnc(N[C@H](C)CO)nc21 (as salt: hydrochloride) [Compound 17, 6-(2,4-Difluoro-phenoxy)-2-((R)-2-hydroxy-1-methyl-ethylamino)-8-((S)-2-hydroxy-propyl)-8H-pyrido[2,3-d]pyrimidin-7-one]
- melting point: 174.9 to 178.1 °C

SMILES: CC(=O)Cn1c(=O)c(Oc2ccc(F)cc2F)cc2cnc(N[C@H](C)CO)nc21 (as salt: hydrochloride) [Compound 46, 6-(2,4-Difluoro-phenoxy)-2-((R)-2-hydroxy-1-methyl-ethylamino)-8-(2-oxo-propyl)-8H-pyrido[2,3-d]pyrimidin-7-one]
- melting point: 207.8 to 216.4 °C

SMILES: CC(=O)Cn1c(=O)c(Oc2ccc(F)cc2F)cc2cnc(N[C@@H](C)CO)nc21 (as salt: hydrochloride) [Compound 45, 6-(2,4-Difluoro-phenoxy)-2-((S)-2-hydroxy-1-methyl-ethylamino)-8-(2-oxo-propyl)-8H-pyrido[2,3-d]pyrimidin-7-one]
- melting point: 207.9 to 214.6 °C

SMILES: C[C@@H](O)Cn1c(=O)c(Oc2ccc(F)cc2F)cc2cnc(NC3CCOCC3)nc21 [Compound 20, 6-(2,4-Difluoro-phenoxy)-8-((R)-2-hydroxy-propyl)-2-(tetrahydro-pyran-4-ylamino)-8H-pyrido[2,3-d]pyrimidin-7-one]
- IC50 [1]: 1 nM

SMILES: C[C@H](CO)Nc1ncc2cc(Oc3ccc(F)cc3F)c(=O)n(C[C@@H](C)O)c2n1 (as salt: hydrochloride) [Compound 42, 6-(2,4-Difluoro-phenoxy)-2-((R)-2-hydroxy-1-methyl-ethylamino)-8-((R)-2-hydroxy-propyl)-8H-pyrido[2,3-d]pyrimidin-7-one]
- melting point: 181.5 to 184.4 °C

SMILES: C[C@@H](O)Cn1c(=O)c(Oc2ccc(F)cc2F)cc2cnc(N[C@@H](C)CO)nc21 (as salt: hydrochloride) [Compound 41, 6-(2,4-Difluoro-phenoxy)-2-((S)-2-hydroxy-1-methyl-ethylamino)-8-((R)-2-hydroxy-propyl)-8H-pyrido[2,3-d]pyrimidin-7-one]
- melting point: 186 to 189.1 °C

SMILES: C[C@H](O)Cn1c(=O)c(Oc2ccc(F)cc2F)cc2cnc(NC(C)(C)CO)nc21 (as salt: hydrochloride) [Compound 36, 6-(2,4-Difluoro-phenoxy)-2-(2-hydroxy-1,1-dimethyl-ethylamino)-8-((S)-2-hydroxy-propyl)-8H-pyrido[2,3-d]pyrimidin-7-one]
- melting point: 187.4 to 189.9 °C

SMILES: C[C@H](O)Cn1c(=O)c(Oc2ccc(F)cc2F)cc2cnc(N[C@@H](C)CO)nc21 (as salt: hydrochloride) [Compound 16, 6-(2,4-Difluoro-phenoxy)-2-((S)-2-hydroxy-1-methyl-ethylamino)-8-((S)-2-hydroxy-propyl)-8H-pyrido[2,3-d]pyrimidin-7-one]
- melting point: 175.1 to 179.1 °C
